Source: patent publication US7910575B2, “Prophylactic or therapeutic agents for allergic ophthalmic diseases or allergic nasal diseases, comprising tricyclic triazolobenzazepine derivative” (Meiji Seika Kaisha, Ltd., priority 2006, dated 2011)
Several values for one entry are separate records, joined by “and”; a condition that tells them apart may be missing. Equal entries are not always repeated. Structures can show the parent of a compound that is named as a salt. Marks after values point to notes of the source that are not given here.

Experiments:
allergic rhinitis [1] = assay: Therapeutic effect on allergic rhinitis (nasal drops one hr after induction); format: in vivo, rat; settings: for Dye leakage amount increase Inhibition ratio: nasal drops, one hr after administration of the antigen
Protocol: In the same manner as in Test Example 4-1, the allergic reaction was induced, and the vascular permeability in the late phase of the allergic rhinitis was measured. In this case, however, for the evaluation of the therapeutic effect, compound A, Amlexanox, and Ketotifen were administered one hr after the induction of the allergic reaction. Since greenie was leaked, the dose was doubled (10 μL) so that the dispersion of the medicament within the nasal cavities is not inhibited, and the concentration of the medicament was regulated with physiological saline to the half of the concentration in the experiment on prophylactic effect to render the dose per individual identical.
The medicament was administered one hr after the administration of the antigen.

allergic rhinitis [2] = assay: Prophylactic effect on allergic rhinitis (nasal drops immediately before induction); format: in vivo, rat; settings: for Increase in dye leakage amount Inhibition ratio: immediately before antigen administration
Protocol: Male Sprague Dawley rats (n=6) were prepared. Bordetella pertussis (4×10^10) and 1 mg of dinitrophenylated ovalbumin (hereinafter referred to as “DNP-OA”) were subcutaneously administered into the footpad of the rats. […] After six hr from the antigen administration, Evans Blue (a dye) (50 mg/kg) was intravenously administered.
After nine hr from the induction of the allergic reaction, the nasal septal mucosa of the rats was harvested, and the weight of the tissue was measured. The tissue of the nasal septal mucosa was lysed with 1 N KOH, and the leakage amount of the dye was determined as an index of vascular permeability in the late phase of the allergic rhinitis.
In this case, physiological saline was administered instead of the antigen.
In the table, the inhibition ratio was calculated by the following equation. Inhibition(%)=100×{(B−A)−(C−A)}÷(B−A)
wherein A represents a negative control group (a nonsensitized group); B represents a control group; and C represents a medicament administered group.

allergic conjunctivitis [3] = assay: Therapeutic effect on allergic conjunctivitis (instillation three hr after induction); format: in vivo, rat; settings: for Tissue weight increase: 5 μL/eye three hr after induction of the allergic reaction; for therapeutic effect on allergic conjunctivitis (in words): instillation three hr after induction
Protocol: Compound A, Betamethasone, control group, and negative control group were administered at the same concentration as in Test Example 1-1, and the concentration of Betamethasone was as shown in Table 3. The test was carried out in the same manner as in Test Example 1-1, except that, three hr after the induction of the allergic reaction, for compound A, Betamethasone, control group, and negative control group were administered, the test solution was administered at a dose of 5 μL/eye to the right eye.

[4] = Concentration of compound A in the eye tissue after instillation; format: in vivo, rabbit
Protocol: A test solution (0.1% or 1%) of compound A in an isotonic borate buffer solution adjusted to pH 7.4 and a test solution (0.1%) of compound B in an isotonic borate buffer solution were provided, and 50 μL of each test solution was administered as ocular instillation to male rabbits.
The concentration of compound A in the eye tissue after instillation was measured as follows. At the outset, the tissue was removed from the test animals and was cryopreserved. Purified water (0.1 mL) was added to a sufficient quantity of the cryopreserved tissue and the like followed by homogenization. Thereafter, 0.5 mL of 0.1% phosphoric acid, 0.05 mL of an internal standard solution (a predetermined internal standard substance ([…]) described in WO 95/18130), 0.05 mL of acetonitrile, and 0.05 mL of purified water were added thereto. An extraction solvent (25% chloroform/diethyl ether) (8 mL) was added, and the mixture was shaken and centrifuged. Thereafter, 7 mL of the organic layer was evaporated to dryness under the negative pressure, and the residue was dissolved in 0.3 mL of a mobile phase to give an analyte. A liquid prepared by mixing and dissolving 0.55 g of tetraoxyl ammonium bromide into 450 mL of acetonitrile, 450 mL of 10 mM phosphate buffer solution, and 100 mL of methanol was used as the mobile phase. The concentration of compound A was measured by injecting 0.025 mL of the analyte into high-performance liquid chromatography (HPLC) (measurement conditions: fluorescence excitation 270 nm, emission 466 nm).
The concentration of only compound A in the eye tissue was measured because compound B is a prodrug of compound A.

rabbit eye (conjunctiva) = assay: Severe eye irritation test using rabbits; format: in vivo; settings: instillation six times per day at 30 min intervals for two days
allergic conjunctivitis [5] = assay: Prophylactic effect on allergic conjunctivitis (instillation before induction, late phase); format: in vivo, rat; settings: for Inhibition ratio Increase in tissue weight: Test Example 1-2, medicament concentration 0.1%, instillation before induction; for Inhibition ratio (%) Increase in tissue weight: 5 μL/eye 15 min before induction; for Inhibition ratio (%) Increase in dye leakage amount: 15 min before induction, Evans Blue
Protocol: Male SD rats were prepared. Bordetella pertussis (4×10^10) and 1 mg of dinitrophenylated ovalbumin (hereinafter often abbreviated to “DNP-OA”) were subcutaneously administered into the footpad of the rats. After 8 to 10 days from the administration, a 3% DNP-OA solution was administered to the right eye of the rats to induce an allergic reaction. In some experiments, in order to confirm dye leakage and location of edema, a dye was injected, and, in the anatomy, the coincidence of dye leakage with the location of edema was confirmed. […] After 9 hr from the induction of the allergic reaction, the eyeballs of the rats were harvested. Further, lenses, hydatoids, and the contents of the vitreous body were removed from the eyeballs, and the weight of the tissues was measured. Furthermore, the dye leakage amount in the harvested eye tissue was measured. […] The absorbance (630 nm) of Evans Blue in the supernatant was measured with Multiskan JX (manufactured by Labsystem Ltd.). The amount of the dye was regarded as a dye leakage amount. […] For the control group, 0.15 M sodium hydrogencarbonate adjusted to pH 7.2 was administered. For a negative control group (a nonsensitization group), a 3% DNP-OA solution was administered to the right eye of the nonsensitized rats, and the solvent was used into the same manner as in the control group. The medicament or the solvent was administered to the right eye (5 μL/eye) 15 min before the induction of the allergic reaction. Compound A was administered at concentrations of 0.01%, 0.1%, and 1% for studies of dose response. In the table, the inhibition ratio was calculated by the following equation.

[6] = test system: epithelial cells of cornea in human eyes; assay: Toxicity against epithelial cells of cornea, 24-hr cell survival rate; format: cell-based
Description: Specifically, toxicity against epithelial cells of cornea in human eyes was studied.

allergic conjunctivitis [7] = assay: Prophylactic effect on allergic conjunctivitis (instillation before induction, late phase); format: in vivo, rat
[8] = Test Example 4-2, nasal drops at concentrations of Table 9
[9] = medicament concentration 0.1%, 0.5 μg/rat, 9 hr after induction
[10] = medicament concentration 1%, 5 μg/rat, 9 hr after induction

CC(C)c1ccc2oc3nc(N)c(C(=O)O)cc3c(=O)c2c1 [Amlexanox]
Dye leakage amount increase Inhibition ratio (allergic rhinitis [1]; 0.125%, 25 μg/rat): 25.0%
prophylactic effect on allergic rhinitis (in words) (allergic rhinitis [2]; [8]): had prophylactic effect on allergic rhinitis
Increase in dye leakage amount Inhibition ratio (allergic rhinitis [2]; Test Example 4-2, nasal drops, 0.25%, 25 μg/rat): 81.1% **

C[C@H]1C[C@H]2[C@@H]3CCC4=CC(=O)C=C[C@]4(C)[C@@]3(F)[C@@H](O)C[C@]2(C)[C@@]1(O)C(=O)COP(=O)([O-])[O-].[Na+].[Na+] [Betamethazone, betamethazone sodium phosphate, reference compound]
Tissue weight increase (allergic conjunctivitis [3]; 0.1%): 74.8% **
therapeutic effect on allergic conjunctivitis (in words) (allergic conjunctivitis [3]): potent therapeutic effect

COc1cc2[nH]c(=O)c3nn[nH]c3c(=O)c2cc1OC [Compound A, 7,8-Dimethoxy-4(5H),10-dioxo-1H-1,2,3-triazolo[4,5-c][1]benzazepine]
maximum eye tissue concentration ([4]; instillation of a 0.1% liquid): 1.29 μg/g and 4.7 μM
concentration at 0.25 h ([4]; male, eye tissue, topical, 50 μL of 1% solution, 1% test solution, 50 μL instillation, rabbit, 0.25 hr after instillation, average ± standard error): 6090 ± 2200 ng/g
concentration at 1 h ([4]; male, eye tissue, topical, 50 μL of 1% solution, 1% test solution, 50 μL instillation, rabbit, 1 hr after instillation): 1150 ± 830 ng/g
concentration at 2 h ([4]; male, eye tissue, topical, 50 μL of 1% solution, 1% test solution, 50 μL instillation, rabbit, 2 hr after instillation): 1260 ± 940 ng/g
concentration at 4 h ([4]; male, eye tissue, topical, 50 μL of 1% solution, 1% test solution, 50 μL instillation, rabbit, 4 hr after instillation): 1380 ± 540 ng/g
concentration at 8 h ([4]; male, eye tissue, topical, 50 μL of 1% solution, 1% test solution, 50 μL instillation, rabbit, 8 hr after instillation): 660 ± 420 ng/g
concentration at 24 h ([4]; male, eye tissue, topical, 50 μL of 1% solution, 1% test solution, 50 μL instillation, rabbit, 24 hr after instillation): 60 ± 60 ng/g
eye irritation (rabbit eye (conjunctiva); 0.5%): irritation was not observed at all
eye irritation (rabbit eye (conjunctiva); 3%): only slight reddening of the conjunctiva was observed
Inhibition ratio Increase in tissue weight (allergic conjunctivitis [5]): 99.1% **
Inhibition ratio (%) Increase in tissue weight (allergic conjunctivitis [5]; medicament concentration 0.01%, 0.05 μg/rat, eye harvested 9 hr after induction): 67.0% **
Inhibition ratio (%) Increase in dye leakage amount (allergic conjunctivitis [5]; medicament concentration 0.01%, 0.05 μg/rat, 9 hr after induction): 74.4% **
Inhibition ratio (%) Increase in tissue weight (allergic conjunctivitis [5]; [9]): 89.0% **
Inhibition ratio (%) Increase in dye leakage amount (allergic conjunctivitis [5]; [9]): 83.9% **
Inhibition ratio (%) Increase in tissue weight (allergic conjunctivitis [5]; [10]): 83.7% **
Inhibition ratio (%) Increase in dye leakage amount (allergic conjunctivitis [5]; [10]): 87.6% **
therapeutic effect on allergic rhinitis (in words) (allergic rhinitis [1]; nasal drops one hr after antigen): exhibited therapeutic effect on the allergic rhinitis
Dye leakage amount increase Inhibition ratio (allergic rhinitis [1]; 0.05%, 10 μg/rat): 93.8% **
prophylactic effect on allergic rhinitis (in words) (allergic rhinitis [2]; Test Example 4-1, nasal drops 0.01% to 1%): effective against allergic rhinitis dose-dependently
prophylactic effect on allergic rhinitis (in words) (allergic rhinitis [2]; [8]): had prophylactic effect on allergic rhinitis
Increase in dye leakage amount Inhibition ratio (allergic rhinitis [2]; Test Example 4-2, nasal drops, 0.1%, 10 μg/rat): 95.7% **
Increase in dye leakage amount Inhibition ratio (allergic rhinitis [2]; nasal drops, 0.01%, 1 μg/rat, nasal septal mucosa 9 hr after induction): 52.9% **
Increase in dye leakage amount Inhibition ratio (allergic rhinitis [2]; nasal drops, 0.1%, 10 μg/rat, 9 hr after induction): 111.7% **
Increase in dye leakage amount Inhibition ratio (allergic rhinitis [2]; nasal drops, 1%, 100 μg/rat, 9 hr after induction): 123.1% **
non-toxic concentration relative to the maximum eye tissue concentration ([6]; 0.3 mM versus 4.7 μM (0.1% liquid instillation)): not less than 60 times
toxicity against epithelial cells of cornea (24-hr cell survival rate) ([6]; concentration range of 100 nM to 0.3 mM): any toxicity was not observed
Tissue weight increase (allergic conjunctivitis [3]; 0.01%): 70.3% **
Tissue weight increase (allergic conjunctivitis [3]; 0.1%): 99.9% **
Tissue weight increase (allergic conjunctivitis [3]; 1%): 103.7% **
therapeutic effect on allergic conjunctivitis (in words) (allergic conjunctivitis [3]): potent therapeutic effect

O=C(O)c1cc(=O)c2c(OCC(O)COc3cccc4oc(C(=O)O)cc(=O)c34)cccc2o1 [Cromoglycate, cromoglycate sodium]
Inhibition ratio Increase in tissue weight (allergic conjunctivitis [7]; Test Example 1-2, medicament concentration 2%): 14.7%
Increase in dye leakage amount Inhibition ratio (allergic rhinitis [2]; Test Example 4-2, nasal drops, 2%, 200 μg/rat): 2.9%

CC(=O)[C@@]1(O)CC[C@H]2[C@@H]3C[C@H](C)C4=CC(=O)C=C[C@]4(C)[C@@]3(F)[C@@H](O)C[C@@]21C [Fluorometholone, fluorometholone, reference compound]
Inhibition ratio Increase in tissue weight (allergic conjunctivitis [5]): 59.4% *

CCC(=O)O[C@]1(C(=O)SCF)[C@H](C)C[C@H]2[C@@H]3C[C@H](F)C4=CC(=O)C=C[C@]4(C)[C@@]3(F)[C@@H](O)C[C@@]21C [Fluticasone, fluticasone propinate]
Increase in dye leakage amount Inhibition ratio (allergic rhinitis [2]; Test Example 4-2, nasal drops, 0.051%, 5.1 μg/rat): 106.0% **

CN1CCC(=C2c3ccccc3CC(=O)c3sccc32)CC1 [Ketotifen, ketotifen fumarate]
Dye leakage amount increase Inhibition ratio (allergic rhinitis [1]; 0.0275%, 5.5 μg/rat): 48.6%
Inhibition ratio Increase in tissue weight (allergic conjunctivitis [7]; Test Example 1-2, medicament concentration 0.05%): 13.4%
prophylactic effect on allergic rhinitis (in words) (allergic rhinitis [2]; [8]): had prophylactic effect on allergic rhinitis
Increase in dye leakage amount Inhibition ratio (allergic rhinitis [2]; Test Example 4-2, nasal drops, 0.055%, 5.5 μg/rat): 49.4%

C[C@@H]1CN([C@H]2CC[C@](C#N)(c3ccc(F)cc3)CC2)CC[C@]1(C(=O)O)c1ccccc1 [Levocabastine, levocabastine hydrochloride]
Inhibition ratio Increase in tissue weight (allergic conjunctivitis [7]; Test Example 1-2, medicament concentration 0.025%): 11.1%
Increase in dye leakage amount Inhibition ratio (allergic rhinitis [2]; Test Example 4-2, nasal drops, 0.025%, 2.5 μg/rat): 22.7%
